Source: PubChem BioAssay (NCI)
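Results reflect a 48-hour exposure of cells in 96-well plates to compound at five concentrations. GI50 marks 50% less growth. TGI denotes the concentration required for complete inhibition of growth.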

What was measured:
Experiment in all cases: DTP human tumour cell line panel, 48 h
LOX IMVI melanoma = test system: LOX IMVI melanoma
NCI/ADR-RES ovarian = test system: NCI/ADR-RES ovarian
K-562 leukemia = test system: K-562 leukemia
BT-549 breast = test system: BT-549 breast
SNB-19 CNS = test system: SNB-19 CNS
SF-295 CNS = test system: SF-295 CNS
A498 renal = test system: A498 renal
UACC-62 melanoma = test system: UACC-62 melanoma
MDA-MB-231 breast = test system: MDA-MB-231 breast
SF-268 CNS = test system: SF-268 CNS
HCT-116 colon = test system: HCT-116 colon
DU-145 prostate = test system: DU-145 prostate
NCI-H460 lung = test system: NCI-H460 lung
IGROV1 ovarian = test system: IGROV1 ovarian
HOP-62 NSCLC = test system: HOP-62 NSCLC
SR leukemia = test system: SR leukemia
HCC-2998 colon = test system: HCC-2998 colon
SN12C renal = test system: SN12C renal
HCT-15 colon = test system: HCT-15 colon
NCI-H226 lung = test system: NCI-H226 lung
OVCAR-8 ovarian = test system: OVCAR-8 ovarian
CAKI-1 renal = test system: CAKI-1 renal
SK-MEL-28 melanoma = test system: SK-MEL-28 melanoma
SK-MEL-5 melanoma = test system: SK-MEL-5 melanoma
HL-60(TB) leukemia = test system: HL-60(TB) leukemia
MOLT-4 leukemia = test system: MOLT-4 leukemia
SK-MEL-2 melanoma = test system: SK-MEL-2 melanoma
NCI-H23 lung = test system: NCI-H23 lung
NCI-H522 lung = test system: NCI-H522 lung
HS 578T breast = test system: HS 578T breast
HOP-92 NSCLC = test system: HOP-92 NSCLC
UO-31 renal = test system: UO-31 renal
MCF7 breast = test system: MCF7 breast
UACC-257 melanoma = test system: UACC-257 melanoma
T-47D breast = test system: T-47D breast
EKVX NSCLC = test system: EKVX NSCLC
ACHN renal = test system: ACHN renal
OVCAR-4 ovarian = test system: OVCAR-4 ovarian
786-0 renal = test system: 786-0 renal
SK-OV-3 ovarian = test system: SK-OV-3 ovarian
RPMI-8226 leukemia = test system: RPMI-8226 leukemia
TK-10 renal = test system: TK-10 renal
SW-620 colon = test system: SW-620 colon
MDA-MB-435 = test system: MDA-MB-435
A549 NSCLC = test system: A549 NSCLC
MALME-3M melanoma = test system: MALME-3M melanoma
OVCAR-5 ovarian = test system: OVCAR-5 ovarian
M14 melanoma = test system: M14 melanoma
U251 CNS = test system: U251 CNS
RXF 393 renal = test system: RXF 393 renal
KM12 colon = test system: KM12 colon
CCRF-CEM leukemia = test system: CCRF-CEM leukemia
SNB-75 CNS = test system: SNB-75 CNS
OVCAR-3 ovarian = test system: OVCAR-3 ovarian
COLO 205 colon = test system: COLO 205 colon
HT29 colon = test system: HT29 colon
SF-539 CNS = test system: SF-539 CNS
PC-3 prostate = test system: PC-3 prostate

## CCCn1cnc2c(c1=N)C(c1ccc(F)cc1)c1sc3c(C)cccc3c1O2 (stereo unspecified)
LOX IMVI melanoma
  GI50: 0.962 µM
  TGI: 13.2 µM
NCI/ADR-RES ovarian
  GI50: 0.425 µM
  TGI: 6.99 µM
K-562 leukemia
  GI50: 0.358 µM
  TGI: 22.6 µM
BT-549 breast
  GI50: 5.84 µM
  TGI: 22.8 µM
SNB-19 CNS
  GI50: 2.4 µM
  TGI: 18.4 µM
SF-295 CNS
  GI50: 0.581 µM
  TGI: 11 µM
A498 renal
  GI50: 0.584 µM
  TGI: 3.95 µM
UACC-62 melanoma
  GI50: 0.443 µM
  TGI: 13.8 µM
MDA-MB-231 breast
  GI50: 3.09 µM
  TGI: 15.7 µM
SF-268 CNS
  GI50: 2.71 µM
  TGI: 21.9 µM
HCT-116 colon
  GI50: 0.467 µM
  TGI: 11.8 µM
DU-145 prostate
  GI50: 3.34 µM
  TGI: 29.5 µM
NCI-H460 lung
  GI50: 1.05 µM
  TGI: 11.5 µM
IGROV1 ovarian
  GI50: 1.23 µM
  TGI: 13.1 µM
HOP-62 NSCLC
  GI50: 2.08 µM
  TGI: 31.1 µM
SR leukemia
  GI50: 0.648 µM
  TGI: 15.6 µM
HCC-2998 colon
  GI50: 2.01 µM
  TGI: 6.08 µM
SN12C renal
  GI50: 2.94 µM
  TGI: 14.9 µM
HCT-15 colon
  GI50: 1.05 µM
  TGI: 12.7 µM
NCI-H226 lung
  GI50: 2.87 µM
  TGI: 15.1 µM
OVCAR-8 ovarian
  GI50: 3.79 µM
  TGI: 31 µM
CAKI-1 renal
  GI50: 0.546 µM
  TGI: > 39.5 µM
SK-MEL-28 melanoma
  GI50: 5.79 µM
  TGI: 22.7 µM
SK-MEL-5 melanoma
  GI50: 1.25 µM
  TGI: 11.9 µM
HL-60(TB) leukemia
  GI50: 1.48 µM
  TGI: 7.87 µM
MOLT-4 leukemia
  GI50: 3.48 µM
  TGI: > 54.2 µM
SK-MEL-2 melanoma
  GI50: 5.41 µM
  TGI: 30.1 µM
NCI-H23 lung
  GI50: 1.62 µM
  TGI: 10.9 µM
NCI-H522 lung
  GI50: 0.4 µM
  TGI: 12.1 µM
HS 578T breast
  GI50: 0.961 µM
  TGI: 14.3 µM
HOP-92 NSCLC
  GI50: 0.458 µM
  TGI: 7.5 µM
UO-31 renal
  GI50: 0.662 µM
  TGI: 15.1 µM
MCF7 breast
  GI50: 0.351 µM
  TGI: 13.8 µM
UACC-257 melanoma
  GI50: 15.6 µM
  TGI: 39.5 µM
T-47D breast
  GI50: 1.97 µM
  TGI: 41.9 µM
EKVX NSCLC
  GI50: 3.7 µM
  TGI: 27.6 µM
ACHN renal
  GI50: 1.45 µM
  TGI: 16.1 µM
OVCAR-4 ovarian
  GI50: 2.79 µM
  TGI: > 42.5 µM
786-0 renal
  GI50: 1.08 µM
  TGI: 14.5 µM
SK-OV-3 ovarian
  GI50: 2.23 µM
  TGI: 38.8 µM
RPMI-8226 leukemia
  GI50: 0.961 µM
  TGI: 7.91 µM
TK-10 renal
  GI50: 16.1 µM
  TGI: 61.5 µM
SW-620 colon
  GI50: 1.32 µM
  TGI: 18.8 µM
MDA-MB-435
  GI50: 0.328 µM
  TGI: 1.27 µM
A549 NSCLC
  GI50: 2.15 µM
  TGI: > 48.8 µM
MALME-3M melanoma
  GI50: 2.66 µM
  TGI: 24.2 µM
OVCAR-5 ovarian
  GI50: 3.66 µM
  TGI: 18.4 µM
M14 melanoma
  GI50: 0.637 µM
  TGI: 11.3 µM
U251 CNS
  GI50: 2.07 µM
  TGI: 18.1 µM
RXF 393 renal
  GI50: 0.227 µM
  TGI: 0.741 µM
KM12 colon
  GI50: 1.63 µM
  TGI: > 36.3 µM
CCRF-CEM leukemia
  GI50: 1.03 µM
  TGI: > 43.8 µM
SNB-75 CNS
  GI50: 0.321 µM
  TGI: 13.8 µM
OVCAR-3 ovarian
  GI50: 0.815 µM
  TGI: 10.6 µM
COLO 205 colon
  GI50: 2.6 µM
  TGI: 8.22 µM
HT29 colon
  GI50: 3.16 µM
  TGI: 12.8 µM
SF-539 CNS
  GI50: 1.16 µM
  TGI: 5.07 µM
PC-3 prostate
  GI50: 0.638 µM
  TGI: 15.2 µM
